# Reference: PubChem BioAssay (NCI)
#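 Results reflect a 48-hour exposure of cells in 96-well plates to compound at five concentrations. TGI denotes the concentration required for complete inhibition of growth.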
# Experiments:
# Test in all cases: NCI tumour cell line growth inhibition, 48 h
# [1] = system: ACHN renal
# [2] = system: CAKI-1 renal
# [3] = system: SF-539 CNS
# [4] = system: IGROV1 ovarian
# [5] = system: MCF7 breast
# [6] = system: SR leukemia
# [7] = system: HOP-62 NSCLC
# [8] = system: KM12 colon
# [9] = system: LOX IMVI melanoma
# [10] = system: MOLT-4 leukemia
# [11] = system: MDA-MB-435
# [12] = system: SF-295 CNS
# [13] = system: K-562 leukemia
# [14] = system: BT-549 breast
# [15] = system: SK-MEL-5 melanoma
# [16] = system: OVCAR-4 ovarian
# [17] = system: A549 NSCLC
# [18] = system: SNB-19 CNS
# [19] = system: EKVX NSCLC
# [20] = system: U251 CNS
# [21] = system: NCI-H226 lung
# [22] = system: OVCAR-3 ovarian
# [23] = system: HCT-116 colon
# [24] = system: HL-60(TB) leukemia
# [25] = system: MDA-N
# [26] = system: OVCAR-8 ovarian
# [27] = system: SK-MEL-2 melanoma
# [28] = system: NCI/ADR-RES ovarian
# [29] = system: OVCAR-5 ovarian
# [30] = system: MALME-3M melanoma
# [31] = system: 786-0 renal
# [32] = system: SW-620 colon
# [33] = system: RPMI-8226 leukemia
# [34] = system: M14 melanoma
# [35] = system: HT29 colon
# [36] = system: UACC-62 melanoma
# [37] = system: SN12C renal
# [38] = system: MDA-MB-231 breast
# [39] = system: COLO 205 colon
# [40] = system: A498 renal
# [41] = system: UO-31 renal
# [42] = system: NCI-H23 lung
# [43] = system: PC-3 prostate
# [44] = system: HCT-15 colon
# [45] = system: DU-145 prostate
# [46] = system: SK-MEL-28 melanoma
# [47] = system: NCI-H522 lung
# [48] = system: SF-268 CNS
# [49] = system: NCI-H460 lung
# [50] = system: SK-OV-3 ovarian
# [51] = system: RXF 393 renal
# [52] = system: SNB-75 CNS
# [53] = system: T-47D breast
# [54] = system: HS 578T breast
# [55] = system: TK-10 renal
# [56] = system: UACC-257 melanoma
# [57] = system: HCC-2998 colon
# [58] = system: CCRF-CEM leukemia
# [59] = system: HOP-92 NSCLC
compound,measurement,setting,value
O=C(O)CCC(=O)c1ccc2sc3ccccc3c2c1,TGI,[1],> 100 µM
same,TGI,[2],> 100 µM
same,TGI,[3],> 100 µM
same,TGI,[4],> 100 µM
same,TGI,[5],> 100 µM
same,TGI,[6],> 100 µM
same,TGI,[7],> 100 µM
same,TGI,[8],> 100 µM
same,TGI,[9],> 100 µM
same,TGI,[10],> 100 µM
same,TGI,[11],> 100 µM
same,TGI,[12],> 100 µM
same,TGI,[13],> 100 µM
same,TGI,[14],> 100 µM
same,TGI,[15],> 100 µM
same,TGI,[16],> 100 µM
same,TGI,[17],> 100 µM
same,TGI,[18],> 100 µM
same,TGI,[19],> 100 µM
same,TGI,[20],> 100 µM
same,TGI,[21],> 100 µM
same,TGI,[22],> 100 µM
same,TGI,[23],> 100 µM
same,TGI,[24],> 100 µM
same,TGI,[25],> 100 µM
same,TGI,[26],> 100 µM
same,TGI,[27],> 100 µM
same,TGI,[28],> 100 µM
same,TGI,[29],> 100 µM
same,TGI,[30],> 100 µM
same,TGI,[31],> 100 µM
same,TGI,[32],> 100 µM
same,TGI,[33],> 100 µM
same,TGI,[34],> 100 µM
same,TGI,[35],> 100 µM
same,TGI,[36],> 100 µM
same,TGI,[37],> 100 µM
same,TGI,[38],> 100 µM
same,TGI,[39],> 100 µM
same,TGI,[40],> 100 µM
same,TGI,[41],> 100 µM
same,TGI,[42],> 100 µM
same,TGI,[43],> 100 µM
same,TGI,[44],> 100 µM
same,TGI,[45],> 100 µM
same,TGI,[46],> 100 µM
same,TGI,[47],> 100 µM
same,TGI,[48],> 100 µM
same,TGI,[49],> 100 µM
same,TGI,[50],> 100 µM
same,TGI,[51],> 100 µM
same,TGI,[52],> 100 µM
same,TGI,[53],> 100 µM
same,TGI,[54],> 100 µM
same,TGI,[55],> 100 µM
same,TGI,[56],> 100 µM
COC(=O)C(CCSC)NC(=O)CNC(=O)CSc1nnc(COc2ccc(Cl)cc2)n1-c1ccccc1 (stereo not drawn),TGI,[57],27 µM
same,TGI,[58],26.1 µM
same,TGI,[1],30.7 µM
same,TGI,[3],35 µM
same,TGI,[4],30.2 µM
same,TGI,[5],39.6 µM
same,TGI,[7],34.9 µM
same,TGI,[8],44.6 µM
same,TGI,[9],23.8 µM
same,TGI,[10],> 100 µM
same,TGI,[11],37.9 µM
same,TGI,[13],> 100 µM
same,TGI,[14],30.6 µM
same,TGI,[15],31.4 µM
same,TGI,[16],50.1 µM
same,TGI,[17],> 100 µM
same,TGI,[18],> 100 µM
same,TGI,[20],31 µM
same,TGI,[21],36.9 µM
same,TGI,[23],30.5 µM
same,TGI,[24],38.3 µM
same,TGI,[25],32.7 µM
same,TGI,[27],28.7 µM
same,TGI,[28],> 100 µM
same,TGI,[29],34.7 µM
same,TGI,[30],32.7 µM
same,TGI,[31],29.5 µM
same,TGI,[32],45.3 µM
same,TGI,[33],59.7 µM
same,TGI,[34],33.6 µM
same,TGI,[35],31.5 µM
same,TGI,[36],30.3 µM
same,TGI,[37],32.4 µM
same,TGI,[38],29.4 µM
same,TGI,[39],33.6 µM
same,TGI,[40],95.7 µM
same,TGI,[41],22.1 µM
same,TGI,[42],30.2 µM
same,TGI,[43],30.2 µM
same,TGI,[44],37.8 µM
same,TGI,[45],55.8 µM
same,TGI,[46],33.3 µM
same,TGI,[48],32.7 µM
same,TGI,[59],32 µM
same,TGI,[49],31.7 µM
same,TGI,[50],34 µM
same,TGI,[51],35.9 µM
same,TGI,[52],36.3 µM
same,TGI,[53],54.7 µM
same,TGI,[54],53.1 µM
same,TGI,[55],31.4 µM
same,TGI,[56],32.2 µM
